Experimental data published in patent publication US20220304916A1, “MODIFIED BLACK SOLDIER FLY LARVAE OIL WITH MODIFIED LAURIC ACID FOR TREATMENT AGAINST BIOFILM FORMATION AND MICROORGANISM GROWTH” (BIO-BEE SDE ELIYAHU LTD, priority 2019, published 2022).

Tests used:
Assay type in all cases: cell-based
[1] = tested on: Pseudomonas aeruginosa (PAO1); assay: Biofilm formation, crystal violet staining
Procedure: (§1) MBSFL oil (converted, 225, BioBee Sde Eliyahu Ltd, lot 0095-0098.181210-181227) was compared to BSFL oil (before conversion, 215, BioBee Sde Eliyahu Ltd, lot 0030.111217), lauric acid 98% (Sigma-Aldrich, denoted LA) and chlorhexidine acetate (Steinberg, denoted CHX), were analyzed as antimicrobial and anti-biofilm-formation agents in vitro, with respect to Pseudomonas aeruginosa (Gram negative, denoted PA01), Staphylococcus aureus (ATCC, American Type Culture Collection) (Gram positive, denoted SA), Streptococcus mutans (ATCC) (Gram positive, denoted SM), Lactobacillus (ATCC) (Gram positive, denoted L), Candida albicans (ATCC) (yeast, denoted CA) and Candida glabrata (ATCC) (yeast, denoted CG).
(§2) Microbial stocks of the Biofilm Research Laboratory were grown from frozen stock: SM at overnight 37° C. in BHI (brain heart infusion) broth medium in an atmosphere of 5% CO2; L at 37° C. in MRS (de Man, Rogosa and Sharpe) broth medium in an atmosphere of 5% CO2; PAO1 and SA at 37° C. in TSB (Trypticase soy broth) medium; CA and CG at 37° C. in RPMI (Roswell Park Memorial Institute) medium.
(§3) BSFL oil and MBSFL oil were prepared in DDW by heating at 100° C. LA was prepared at 50% Ethanol/50% DDW (doubly distillated water) and heated constantly to prevent solidifying in the tube. Maximum concentration of tested agents was the same (2.7% of lauric acid content). CHX was prepared in DDW
(§4) To examine the effects of MBSFL oil on biofilm formation by the microorganisms, assays for all of the tested agents were performed as described above except of growth medium used which was MRS/BHI supplemented with 1% sucrose and TSB/RPMI supplemented with 1% glucose. After incubation for 24 h, spent media and free-floating bacteria/fungi were removed by gentle aspiration and the wells were washed twice with phosphate-buffered saline (PBS, pH 7.4). The biofilm was then quantified by crystal violet staining. Briefly, 0.02% crystal violet was added into wells for 45 min, which were then washed twice with DDW to remove unbound dye. After adding 200 μl of 30% acetic acid into each well, the plate was shaken for 10 min to release the dye and the biofilm was quantified by measuring the absorbance at 595 nm using a Genius plate reader Spectrophotometer (Tecan). Assay was performed in triplicates.

[2] = tested on: Staphylococcus aureus (SA); assay: Biofilm formation, crystal violet staining; conditions: 24 h
Procedure: as §1, §2, §3, §4

Candida albicans (CA) [3] = assay: Biofilm formation, crystal violet staining; conditions: 24 h
Procedure: as §1, §2, §3, §4

Candida glabrata (CG) [4] = assay: Biofilm formation, crystal violet staining
Procedure: as §1, §2, §3, §4

[5] = tested on: Streptococcus mutans (SM); assay: Biofilm formation, crystal violet staining; conditions: 24 h
Procedure: as §1, §2, §3, §4

Candida albicans (CA) [6] = assay: Viability on agar plates (MFC)
Procedure: as §1, §2, §3
(§5) To examine the effects of MBSFL oil on microorganism's viability, equal amounts (5 μl) of bacterial suspension exposed to each tested concentration of agent was plated on agar plates. Plates were incubated overnight at 37° C. Colony growth was recorded as non-affected by agent's viable bacteria. Minimal Bactericidal Concentration (MBC) was recorded as no colony growth. Minimal Fungicidal Concentration (MFC) was recorded as no fungal growth.

Candida glabrata (CG) [7] = assay: Viability on agar plates (MFC)
Procedure: as §1, §2, §3, §5

[8] = tested on: Pseudomonas aeruginosa (PAO1); assay: Planktonic growth, OD 595 nm after 24 h
Procedure: as §1, §2, §3
(§6) To examine the effects of MBSFL oil on microorganism's growth (planktonic conditions), serial 1:2 dilutions of each tested agent in appropriate medium (BSFL, MBSFL and LA from 2.7 to 0.04%; CHX from 20 μg/ml to 0.3 μg/ml) were prepared in a polystyrene flat-bottomed 96-well microplate. Wells with no compounds and those with bacteria served as positive controls. Wells with no bacteria and with compound served as blanks. An equal volume (100 μl) of the each tested bacterial and fungal suspension at optical density (OD)595=0.02 and 0.05, respectively, was added to each well. After a 24 h incubation, growth was monitored by recording the OD at 595 nm using a Genius plate reader Spectrophotometer (Tecan). The assay was performed in triplicates.

[9] = tested on: Staphylococcus aureus (SA); assay: Planktonic growth, OD 595 nm after 24 h
Procedure: as §1, §2, §3, §6

Candida albicans (CA) [10] = assay: Planktonic growth, OD 595 nm after 24 h
Procedure: as §1, §2, §3, §6

Candida glabrata (CG) [11] = assay: Planktonic growth, OD 595 nm after 24 h
Procedure: as §1, §2, §3, §6

Lactobacillus (L) [12] = assay: Planktonic growth, OD 595 nm after 24 h
Procedure: as §1, §2, §3, §6

[13] = tested on: Streptococcus mutans (SM); assay: Planktonic growth, OD 595 nm after 24 h
Procedure: as §1, §2, §3, §6

[14] = tested on: Pseudomonas aeruginosa (PAO1); assay: Viability on agar plates (MBC)
Procedure: as §1, §2, §3, §5

[15] = tested on: Staphylococcus aureus (SA); assay: Viability on agar plates (MBC)
Procedure: as §1, §2, §3, §5

Lactobacillus (L) [16] = assay: Viability on agar plates (MBC)
Procedure: as §1, §2, §3, §5

[17] = tested on: Streptococcus mutans (SM); assay: Viability on agar plates (MBC)
Procedure: as §1, §2, §3, §5

For `CC(=O)O.CC(=O)O.NC(=N\CCCCCC/N=C(N)/N=C(\N)Nc1ccc(Cl)cc1)/N=C(\N)Nc1ccc(Cl)cc1` [CHX, chlorhexidine acetate], the “dose of total inhibition of biofilm formation” value ([1]; PAO1 biofilm, 24 h) was 10 µg/mL, the “dose inhibiting biofilm formation” value [2] was 2.5 µg/mL and the “dose inhibiting biofilm formation” value (Candida albicans (CA) [3]) was 5 µg/mL. For the same compound, the “dose inhibiting biofilm formation” value (Candida glabrata (CG) [4]; 24 h) was 2.5 µg/mL, the “dose inhibiting biofilm formation” value [5] was 0.625 µg/mL and the MFC (Candida albicans (CA) [6]) was 5 µg/mL. For the same compound, the MFC (Candida glabrata (CG) [7]) was 2.5 µg/mL, the “dose of total inhibition of PAO1 growth” value [8] was 10 µg/mL and the “dose inhibiting growth of SA” value ([9]; planktonic, 24 h) was 2.5 µg/mL. The “dose inhibiting growth of CA” value (Candida albicans (CA) [10]) was 5 µg/mL, the “dose inhibiting growth of CG” value (Candida glabrata (CG) [11]) was 2.5 µg/mL and the MIC (Lactobacillus (L) [12]) was 2.5 µg/mL. The “dose inhibiting growth of SM” value [13] was 0.625 µg/mL, the MBC [14] was 20 µg/mL and the MBC [15] was 10 µg/mL. For the same compound, the MBC (Lactobacillus (L) [16]) was 2.5 µg/mL and the MBC [17] was 0.625 µg/mL.

For `CCCCCCCCCCCC(=O)O` [LA, lauric acid], the “effect on biofilm formation (in words)” value ([1]; all concentrations tested) was “dose-dependently increased biomass”, the “dose at which biofilm formation was totally or almost totally inhibited” value [2] was 0.67% and the “dose at which biofilm formation was almost totally inhibited” value (Candida albicans (CA) [3]) was 0.67%. For the same compound, the “effect on biofilm formation (in words)” value (Candida glabrata (CG) [4]) was “effective against biofilm formation of CG but with less impact”, the “dose of total inhibition of biofilm formation” value [5] was 0.16% and the “Minimal Fungicidal Concentration (MFC)” value (Candida albicans (CA) [6]) was 2.7%. The MFC (Candida glabrata (CG) [7]) was 2.7%, the “reduction of SA growth” value ([9]; lowest tested dose of 0.04%) was 90% and the MIC (Candida albicans (CA) [10]) was 1.35%. It also gave an MIC (Candida glabrata (CG) [11]) of 2.7%, an MIC (Lactobacillus (L) [12]) of 0.33% and an MIC [13] of 0.33%. The “Minimal Bactericidal Concentration (MBC)” value [14] was “exerted MBC/MFC for all tested microbes, except PAO1”, the MBC [15] was 0.67% and the MBC (Lactobacillus (L) [16]) was 0.67%. For the same compound, the MBC [17] was 0.33%.
